# Reference: patent publication US20040254229A1, “Use of glucose uptake enhancer for reducing apoptosis” (SmithKline Beecham p.l.c. and SmithKline Beecham …, priority 1998, published 2004)
# Legend:
# [1] = tested on: isolated working hearts from male Wistar rats; experiment: Isolated working hearts from normal male Wistar rats: ventricular function, zero-flow ischaemia and re-perfusion; design: species or system rat
# Method: Test Systems: Male Wistar rats (Charles River; St Aubin lès Elbeuf, France), with a body weight ranging from 260 to 280 g were housed on a 12h/12h light-dark cycle with access to water and standard rat chow ad libitum. An acclimatisation period of at least one week was allowed prior to experiment.
# (§1) Perfusion of isolated hearts: Rats were anaesthetized using thiopental sodium (50 mg/kg body weight intraperitoneally). Hearts from normoglycaemic and one-month STZ-induced diabetic rats, were quickly removed and immersed in ice-cold buffer to produce an immediate cessation of contractility. The aorta was dissected free and then mounted onto a cannula attached to a perfusion apparatus. Retrograde perfusion of the heart was started for 10 min by the Langendorff method and then switched to perfusion using the working-heart technique. […] The perfusate was not recirculated. Preload was held at a pressure of 15 cm H2O and afterload, as well as coronary perfusion pressure, were kept constant at 80 cm H2O.
# (§2) Aortic and coronary flows ([…]) were measured by timed collection. Cardiac output ([…]) was derived from the sum of the aortic and coronary flows. Stroke volume (ml/beat) was derived by dividing cardiac output by heart rate.
# (§3) Induction of global ischaemia and re-perfusion: Total ischaemia was initiated by clamping the left atrium and the aortic perfusion tubes and reducing coronary flow to zero for 30 minutes. The hearts were then re-perfused at 37° C. in working heart mode and recovery of ventricular function was followed for 30 minutes.
# (§4) Data Handling & Analysis: The data are presented as the mean±SEM. Statistical significance of differences was determined using Student's t-test. Differences with p<0.05 were considered to be statistically significant.
# [2] = tested on: isolated working hearts from STZ-diabetic rats; experiment: Isolated working hearts from STZ-diabetic male Wistar rats: ventricular function, zero-flow ischaemia and re-perfusion; design: species or system rat
# Method: A solution of streptozotocin (STZ commercially available) was prepared in citrate buffer (40 mg/ml).
# Induction of experimental diabetes: Male Wistar rats weighing between 300 and 320 g were fasted overnight and made diabetic by a single intravenous injection of STZ, 40 mg/kg body weight. The development of diabetes and its persistence were monitored by serial quantitative measurements of glucose in the urine with reagent strips. On the day of the experiment, the severity of diabetes was assessed by measuring glucose concentrations from blood samples collected at the time of heart excision. Only rats with plasma glucose levels exceeding 20 mM were considered diabetic and included in these experiments.
# as §1, §2, §3, §4
# [3] = baseline ventricular function, normal male Wistar rats, 1 μM in the perfusate pre-ischaemia, mean±SEM
# [4] = baseline ventricular function, STZ-diabetic male Wistar rats, 1 μM in the perfusate pre-ischaemia, n = 6, mean±SEM
structure (smiles),measurement,setting,value
"CN(CCOc1ccc(CC2SC(=O)NC2=O)cc1)c1ccccn1 (stereo not drawn) [Compound (I), 5-[4-[2-(N-methyl-N-(2-pyridyl)amino)ethoxy]benzyl]thiazolidine-2,4-dione]",Aortic Flow,[1]; [3],34.0 ± 0.7 mL/min
same,Cardiac Output,[1]; [3],51 ± 1 mL/min
same,Coronary Flow,[1]; [3],16.6 ± 0.6 mL/min
same,Heart Rate,[1]; [3],317 ± 15 beats/min
same,Peak Systolic Pressure,[1]; [3],73 ± 1 mmHg
same,protective properties in hearts subjected to zero-flow ischaemia in vitro,[1]; normal rat hearts,protective properties of rapid onset
same,Aortic Flow,[2]; [4],42.3 ± 1.5 mL/min
same,Cardiac Output,[2]; [4],54.4 ± 1.7 mL/min
same,Coronary Flow,[2]; [4],12.1 ± 0.4 mL/min
same,Heart Rate,[2]; [4],225 ± 14 beats/min
same,Peak Systolic Pressure,[2]; [4],76 ± 2 mmHg
same,protective properties in hearts subjected to zero-flow ischaemia in vitro,[2]; diabetic rat hearts,protective properties of rapid onset
